Experimental data: patent US8722714B2, “Oxazolidine derivatives as NMDA antagonists” (The Honk Kong University of Science and Technology, priority 2008, dated 2014)

Columns and labels:
[1] = test system: rat primary cortical neurons; experiment: Immunocytochemical analysis of neurons after NMDA insult; type: cell-based; conditions: compound 10 μg/ml; beta-tubulin type III and DAPI stain
Procedure: Primary cortical and hippocampal neurons were prepared from embryonic day 18 (E18) Sprague-Dawley rats. Neurons were plated on 35-mm dishes (NUNC) at a density of 1×10^6 cells per plate using Neurobasal medium (Invitrogen) supplemented with 2% B27 (Invitrogen). Neurons at 11-12 days in vitro (DIV) were subjected to treatment with the test compounds. Neurons were pretreated with the test compound for 2 hours prior to NMDA treatment. 0.1 μM (+)-MK-801 Hydrogen Maleate (Sigma) was added as a positive control. Briefly, the neurons were rinsed with Locke's solution (5 mM potassium chloride, 128 mM sodium chloride, 2.7 mM calcium chloride, 1 mM di-sodium hydrogen orthophosphate, 5 mM HEPES and 10 mM glucose in Milli-Q water) without Mg^2+, and incubated with addition of glycine (10 μM) for 15 minutes. After the incubation, the neurons were co-treated with the test compound (dissolved in Locke's plus glycine solution) and NMDA (20 μM; Sigma) for 20 minutes. Neurons were rinsed with Locke's plus Mg^2+ and replaced with fresh growth medium. […] Neurons were then analyzed by a fluorescence microscope using a 40× objective (DMRA; Leica). […]
LC-02 (10 μg/mL) protects embryonic rat primary cortical neurons against NMDA excitotoxicity. Neurites were immunostained with beta-tubulin type III antibody and detected with FITC-conjugated antibody. […]

opioid kappa receptor = opioid kappa receptor (Rattus norvegicus, UniProt P34975); experiment: Ligand binding assay (High-throughput Profile, CEREP)
Chain of opioid kappa receptor (P34975 whole entry): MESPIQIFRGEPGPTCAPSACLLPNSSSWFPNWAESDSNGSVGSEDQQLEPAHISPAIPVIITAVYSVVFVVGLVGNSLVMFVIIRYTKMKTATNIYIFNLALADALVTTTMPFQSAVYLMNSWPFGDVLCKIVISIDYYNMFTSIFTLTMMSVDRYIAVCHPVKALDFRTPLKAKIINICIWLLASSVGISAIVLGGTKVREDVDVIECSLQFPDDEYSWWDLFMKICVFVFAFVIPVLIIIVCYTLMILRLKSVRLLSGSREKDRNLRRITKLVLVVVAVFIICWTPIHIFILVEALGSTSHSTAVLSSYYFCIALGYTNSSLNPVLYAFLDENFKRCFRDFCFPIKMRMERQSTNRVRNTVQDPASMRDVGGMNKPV
Procedure: (§1) To determine the pharmacological profile and potential targets of LC-02, 80 binding assays were performed (High-throughput Profile, CEREP, France). LC-02 was evaluated at a single concentration in these specific binding assays. […] A cutoff of 25% is considered as a moderate effect.
(§2) Compound LC-02 (10 μM) was subjected to ligand binding assays with human A3 and rat kappa receptor overexpressing cells. Results are expressed as a percent of control specific agonist response [100-(measured specific response/control specific agonist response)×100] obtained in the presence of LC-02.

Adenosine A1 = target: T1, Adenosine A1 (Homo sapiens, UniProt P30542); experiment: as above
T1 construct: CEREP, France (contract assay, High-throughput Profile)
T1 sequence (P30542 1-326): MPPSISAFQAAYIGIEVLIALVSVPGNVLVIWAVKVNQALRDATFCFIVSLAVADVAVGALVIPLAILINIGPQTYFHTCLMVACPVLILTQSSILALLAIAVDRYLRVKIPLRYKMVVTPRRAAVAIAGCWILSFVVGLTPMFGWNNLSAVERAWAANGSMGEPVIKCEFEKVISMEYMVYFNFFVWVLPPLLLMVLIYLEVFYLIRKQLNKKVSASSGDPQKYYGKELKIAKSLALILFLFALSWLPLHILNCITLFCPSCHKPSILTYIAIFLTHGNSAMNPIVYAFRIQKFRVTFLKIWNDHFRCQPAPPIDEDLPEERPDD
Procedure: as §1, §2

mice = experiment: Forced Swim Test (FST); type: in vivo; conditions: 100 mg/kg p.o., 7 times, last 4 min of 6-min swim
Text: Outbred male I.C.R. mice of ˜3-4 weeks old weighing 20-22 g were used. The mice had free access to food (rodent chow #2053, 5g/mouse/day) and water. The cage floors were covered with wood shavings and the mice were handled once per week while the cages were cleaned. […] Number of mice per group was ˜10-15. To facilitate adaptation to novel surroundings, mice were transported to the testing area from the core animal facility at least one week prior to testing. All experimental sessions were conducted between 0900 and 1200 hours. Briefly, mice were put into a pyrex cylinder of 30 cm in height and 11.5 cm in diameter with water (10 cm) to a level that they would not be able to touch the bottom. Mice were put into the cylinder for twice, first day 15 min and second day 6 min. The duration of immobility (within the last 4 min in the 6-min time frame) of mice in FST were recorded using Etho-Vision® XT Mobility (Noldus software). The parameters to score the behavior of animals in the FST were fine-tuned by visual inspection. […]
The Forced Swim Test (FST) is a popular animal model for assessing depression. […] The time that the test animal spends in an immobile state in the second trial is measured (immobility time). […]
The task was then performed twice and the duration of time the mice spent in an immobile state during the second trial was measured. […]

SMILES: CC[C@H]1N[C@@H](CC(C)C)C(CC)(CC)O1 [LC-02]
- protection against NMDA excitotoxicity and apoptosis (immunostaining) [1]: protected the cells from excitotoxicity and the resulting apoptosis at a level similar to control cells
- % of inhibition of ligand binding (opioid kappa receptor; 10 μM, [3H]U 69593, rat kappa receptor overexpressing cells): 26%
- inhibition at 10 µM (opioid kappa receptor; [3H]U 69593, rat kappa receptor overexpressing cells): 30%
- inhibition at 10 µM (Adenosine A1): 5%

SMILES: CCCC1(CCC)O[C@@H](CC)N[C@H]1CC(C)C [LC-06]
- duration of immobility (immobility time) (mice): Reduces the Duration of Immobility
